In patent US9314444B2, “Composition and method for treatment of NASH” (BioKier Inc., priority 2009, dated 2016):

Legend:
[1] = tested on: cell lines derived from L-cells; conditions: cited from earlier work
GLP-1 and PYY = experiment: Direct colonic delivery, secretion of gut hormones from the colon; format: in vivo; conditions: upper gut bypassed
L-cells in the colon = conditions: dosed orally and unformulated; cited from earlier work
rat liver = conditions: butyrate formed from carbohydrates via fermentation in the rat colon; cited from earlier work
GLP-1 = experiment: Colon delivered L-glutamine, GLP-1 secretion in human diabetic subjects; format: in vivo

## CCC(=O)O [propionic acid]
[1]
  secretion of gut hormones: induce secretion
GLP-1 and PYY
  secretion of GLP-1 from the colon: increase
  secretion of PYY from the colon: increase
L-cells in the colon
  minimum effective amount: 30 grams

## CCCC(=O)O [butyric acid]
[1]
  secretion of gut hormones: induce secretion
Rat liver
  fat in the rat liver: reduces
GLP-1 and PYY
  secretion of GLP-1 from the colon: increase
  secretion of PYY from the colon: increase
L-cells in the colon
  minimum effective amount: 30 grams

## NC(=O)CC[C@H](N)C(=O)O [L-glutamine]
[1]
  secretion of gut hormones: induce secretion
GLP-1
  secretion of GLP-1: increased
GLP-1 and PYY
  secretion of GLP-1 from the colon: increase
  secretion of PYY from the colon: increase
L-cells in the colon
  minimum effective amount: 30 grams
  toxic dose: ≥ 30 grams
